Reference: US20240317725A1, “LPA1 SMALL MOLECULE ANTAGONIST” (TUOJIE BIOTECH (SHANGHAI) CO., LTD., priority 2021, published 2024)

Biological target: T1, human lysophosphatidic acid receptor 1 (LPAR1) (Homo sapiens, UniProt Q92633)
T1 construct: host or cells: CHO-K1 (Chinese hamster ovary K1) cells, CHO-K1/LPA1R, kept under hygromycin B selection
Test: FLIPR test of antagonist properties: inhibition of LPA-induced intracellular calcium elevation in CHO-K1 cells expressing hLPAR1
Format: cell-based
Conditions: FLIPR calcium assay, CHO-K1/LPA1R cells, LPA at EC80
Description: The antagonist properties of the compounds of the present disclosure were tested using the FLIPR (fluorometric imaging plate reader) method. The compounds are inhibitors of intracellular calcium elevation induced by activation of hLPARI (human lysophosphatidic acid receptor 1) expressed in CHO-K1 cells (Chinese hamster ovary K1 cells, HDB).
2.1. Reaction buffer: HBSS+20 mM HEPES+0.1% fatty acid-free BSA+0.001% F-127
2.2. 50×Red dye: (a red dye for blocking background signals in cells) prepared by: weighing out 4 g of tartrazine and 10.2 g of acid red and dissolving them in 100 mL of H2O.
2.3. Fluo-8 staining mixture: 4 mL of reaction buffer, 32 μL of fluo-8, 320 μL of 50×Red dye, and 40 μL of probenecid.
3.1. LPA: dissolved in DPBS (containing 0.1% fatty acid-free BSA) to prepare a 0.8 μM stock solution, and the solution was aliquoted and stored at −20° C.
3.2. Test compound preparation: The test compounds were dissolved in DMSO to prepare 10 mM stock solutions, and the solutions were stored at −20° C. In the experiment, the compounds were first gradient-diluted with DMSO (initial concentration of 50 μM, 3-fold dilution, 10 points) to prepare 200×compound solutions. The compound solutions were then diluted with reaction buffer to give 5×compound solutions, and the solutions were transferred to a 384-well plate (Cat. No. 6008590) using Bravo.
4.1. CHO-K1/LPA1R cells were cultured in a cell culture medium (F-12+10% FBS+400 μg/mL hygromycin B).
4.2. When the cell confluence reached 80%, the cells were digested with 0.25% pancreatin.
4.3. When the cells became round, the digestion was stopped with the medium F-12 (10% FBS), and the cells were counted. Then the cell culture was diluted with F-12 (10% FBS) to give a cell suspension with a density of 6.7×10^5 cells/mL.
4.4. The cell suspension was added to a 384-well black cell culture plate at 30 µL/well using a Multidrop auto-dispenser, and the plate was incubated in a 37° C., 5% CO2 incubator for 20-24 h. The medium was changed to a serum-free F-12 medium, and the cells were starved for 24 h.
4.5. Dose experiment for testing LPA. Gradient dilutions of 6×LPA solution (initial concentration of 60 μM, 3-fold dilution, 10 points) were prepared with reaction buffer. The medium in the 384-well black cell culture plate was discarded and changed to reaction buffer. 10 μL of 5% DMSO reaction buffer was added, and 10 μL of Fluo-8 staining mixture was then added. The plate was incubated in the dark in a 37° C., 5% CO2 incubator for 0.5 h.
4.6. FLIPR was correspondingly programmed, the 6×LPA gradient solutions were added, and readings were taken. Two-minute data were collected.
4.7. A reaction curve was obtained from the numerical values of LPA, and the concentration of LPA at EC80 was calculated. A 6×LPA solution was prepared in a 384-well plate (Cat. No. 6008590), and HPE and ZPE were added to corresponding wells. HPE (one hundred per cent effect) was 60 μM LPA, and ZPE (zero per cent effect) was reaction buffer.
4.8. Testing of compounds. The medium in the 384-well black cell culture plate was discarded and changed to reaction buffer. 10 μL of 5×compound solution was transferred using Bravo, and then 10 μL of Fluo-8 staining mixture was added immediately. The plate was incubated in the dark in a 37° C., 5% CO2 incubator for 0.5 h.
4.9. FLIPR was correspondingly programmed, the 6×LPA solution was added, and readings were taken. Two-minute data were collected.
4.10. Finally, the output fluorescence counts were analyzed, and IC50 was calculated for the compounds.

T1 sequence (Q92633 whole entry): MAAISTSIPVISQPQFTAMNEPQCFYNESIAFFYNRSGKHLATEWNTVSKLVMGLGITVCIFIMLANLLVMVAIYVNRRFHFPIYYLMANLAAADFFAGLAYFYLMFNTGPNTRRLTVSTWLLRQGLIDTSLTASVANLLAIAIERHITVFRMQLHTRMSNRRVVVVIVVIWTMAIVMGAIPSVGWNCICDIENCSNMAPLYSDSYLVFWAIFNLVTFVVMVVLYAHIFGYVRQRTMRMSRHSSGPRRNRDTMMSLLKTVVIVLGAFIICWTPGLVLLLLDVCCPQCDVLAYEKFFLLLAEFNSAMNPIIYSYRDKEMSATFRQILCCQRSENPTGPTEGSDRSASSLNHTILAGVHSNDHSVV

Compound	IC50 [nM]
Cc1nc(-c2nnn(C)c2COc2nccc(C(F)(F)F)n2)ccc1OC1CC2CCC(C(=O)O)C2C1 (stereo not drawn) [Compound 1, 5-((2-Methyl-6-(1-methyl-5-(((4-(trifluoromethyl)pyrimidin-2-yl)oxy)methyl)-1H-1,2,3-triazol-4-yl)pyridin-3-yl)oxy)octahydropentalene-1-carboxylic acid]	16.7
Cc1nc(-c2nnn(C)c2COc2nccc(C(F)(F)F)n2)ccc1OC1CC2CCC(C(=O)O)C2C1 (single isomer, unassigned) [Compound 1-P2, 5-((2-Methyl-6-(1-methyl-5-(((4-(trifluoromethyl)pyrimidin-2-yl)oxy)methyl)-1H-1,2,3-triazol-4-yl)pyridin-3-yl)oxy)octahydropentalene-1-carboxylic acid]	659
Cc1nc(-c2nnn(C)c2COc2noc(C3CC3)n2)ccc1OC1CC2CCC(C(=O)O)C2C1 (single isomer, unassigned) [Compound 2-P2, 5-((6-(5-(((5-Cyclopropyl-1,2,4-oxadiazol-3-yl)oxy)methyl)-1-methyl-1H-1,2,3-triazol-4-yl)-2-methylpyridin-3-yl)oxy)octahydropentalene-1-carboxylic acid]	2690
CCc1cc(OCc2c(-c3ccc(OC4CC5CCC(C(=O)O)C5C4)c(C)n3)nnn2C)ncn1 (single isomer, unassigned) [Compound 4-P1, 5-((6-(5-(((6-Ethylpyrimidin-4-yl)oxy)methyl)-1-methyl-1H-1,2,3-triazol-4-yl)-2-methylpyridin-3-yl)oxy)octahydropentalene-1-carboxylic acid]	746

Other lines, results leading:

IC50 [nM]	Compound
39.6	Cc1nc(-c2nnn(C)c2COc2nccc(C(F)F)n2)ccc1OC1CC2CCC(F)(C(=O)O)C2C1 (stereo not drawn) [Compound 6, 5-((6-(5-(((4-(Difluoromethyl)pyrimidin-2-yl)oxy)methyl)-1-methyl-1H-1,2,3-triazol-4-yl)-2-methylpyridin-3-yl)oxy)-1-fluorooctahydropentalene-1-carboxylic acid]
853	Cc1nc(-c2nnn(C)c2COc2nccc(O[C@H]3CCOC3)n2)ccc1OC1CC2CCC(C(=O)O)C2C1 (single isomer, unassigned) [Compound 9-P2]
